Values joined by “and” are separate entries in the source; they are usually repeats but may differ in a detail not shown here. Equal values may be shown once. Read-outs that look alike come from different tables or passages of the source.
Columns and labels:
[1] = CC50 assay in Huh-7 HCV replicon cells (CellTiter-Glo); type: cell-based, human; conditions: human, 50% cytostatic concentration
Method: (§1) The anti-HCV activity of the pyrido[3,2-d]pyrimidine derivatives of this invention was tested in a human hepatoma Huh-7 cell line harbouring a HCV replicon. The assay comprised the following steps:
(§2) Step 1: Compound Preparation and Serial Dilution
(§3) • 1. for water soluble pyrido[3,2-d]pyrimidine derivatives, a volume of 500 μL of solution in cell media (DMEM, 10% FBS, P/S, L-Glutamine) was prepared with a concentration being twice the concentration of the starting final serial dilution concentration. […] The rest of the plate, columns 2-12, was filled with 100 μL of cell media. The plate was then placed on a Precision 2000 Workstation to start the serial dilution. Compounds were diluted three times each step from column 1 to column 10. Column 11 was used as a blank control (no compound added). • 2. for pyrido[3,2-d]pyrimidine derivatives requiring DMSO to dissolve, serial dilution is performed in 50% DMSO in a 384-well plate. A solution containing a compound at 100-fold concentration of the starting final serial dilution concentration was prepared in 50% DMSO and added to the pre-specified wells in column 1 of a polypropylene 384-well plate. The plate was then placed on a Precision 2000 Workstation to start the serial dilution. After the serial dilution, a volume of 2 μL of the solution was transferred from the 384-well plate to a 96-well cell culture plate containing 100 μL of cell media on a Biomek FX Workstation. The DMSO concentration in the final assay condition was 0.5% after cells are added to the plate and the total volume in each well is brought to 200 μL. Step 2: to each well of the serial dilution plate prepared above, 100 μL of cell media containing 6000 suspended Huh-7 HCV replicon cells was added with a Multidrop workstation. The plates were incubated for 3 days at 37° C. with 5% CO2. Step 3: Detection: • a) for the EC50 assay, the media in a 96-well cell culture plate was aspirated with a Biotek EL405 plate-washer. A volume of 200 μL of a solution containing a 1:1 mixture of cell-lysis buffer (Promega, Luciferase Cell Culture Lysis 5× Reagent, cat. #E1531) and luciferase substrate solution (Promega, Luciferase Assay, cat. #E4550) was added to each well of the plate with Multidrop.
(§4) Results in table 7 are expressed by the following data: • the 50% effective concentration (EC50), i.e. the concentration that protects 50% of the cell monolayer from virus-induced cythopathic effect, and • the 50% cytostatic concentration (CC50), i.e. the concentration that results in 50% inhibition of cell growth. Table 7 further indicates the nature of substituents being present in positions 2, 4 and 6 of the pyrido[3,2-d]pyrimidine derivatives of the invention.

[2] = system: HCV replicon; assay: Anti-HCV assay / replicon assay (EC50, luciferase read-out); type: cell-based, hepatitis C virus (HCV); conditions: for CC50/EC50: CC50/EC50 ratio (selectivity index)
Method: as §1, §2, §3, §4

[3] = system: Huh-7 HCV replicon cells; assay: CC50 assay in Huh-7 HCV replicon cells (CellTiter-Glo); type: cell-based, human; conditions: 3 days, 50% cytostatic concentration
Method: as §1, §2, §3, §4

[4] = Hepatitis C virus, 72 h, human hepatoma Huh-7 cell line harbouring a HCV replicon, 3 days, luciferase luminescence, read-out: EC50
[5] = human hepatoma Huh-7 cell line harbouring a HCV replicon, 3 days, luciferase luminescence, read-out: EC50

CC(=O)Nc1ccc(-c2ccc3nc(N)nc(OCC4CC4)c3n2)cc1 [Example 356, 2-amino-4-(cyclopropylmethyloxy)-6-(p-acetamidophenyl)-pyrido(3,2-d)pyrimidine]
CC50 at 3 days [1]: 25100 nM
CC50/EC50 [2]: 87
EC50 [2, 4]: 290 nM

O=C(Nc1cccc(Cl)c1)N1CCN(c2ncnc3ccc(-c4ccc5c(c4)OCO5)nc23)CC1 [Example 85, 4-[(N-3-chlorophenylcarbamoyl)-piperazin-1-yl]-6-(3,4-methylenedioxy)phenyl-pyrido[3,2-d]pyrimidine]
CC50 [3]: 1200 nM
CC50/EC50 [2]: 64
EC50 [2, 5]: 19 nM

Cc1cccc(NC(=O)N2CCN(c3nc(N)nc4ccc(-c5ccc(F)cc5)nc34)CC2)c1 [Example 390, 2-amino-4-[N-(3-methylphenyl-carbamoyl)-piperazin-1-yl]-6-(4-fluorophenyl)-pyrido[3,2-d]pyrimidine]
CC50 [3]: 3500 nM
CC50/EC50 [2]: 575
EC50 [2, 5]: 6 nM

4-ethoxy-6-(4-methoxy-phenyl)-pyrido[3,2-d]pyrimidin-2-ylamine [Example 461]
CC50 [3]: 25100 nM
CC50/EC50 [2]: 93
EC50 [2, 5]: 270 nM

COc1ccc(-c2ccc3nc(OCCOc4ccccc4)nc(N4CCN(C(=O)Nc5cccc(C)c5)CC4)c3n2)cc1OC [Example 19]
CC50 [3]: 25100 nM
CC50/EC50 [2]: 52
EC50 [2, 5]: 480 nM

COc1ccc(-c2ccc3nc(N)nc(Nc4cccc(C)c4)c3n2)cc1OC [Example 32, 2-amino-4-(3-methyl-anilino)-6-(3,4-dimethoxyphenyl)-pyrido[3,2-d]pyrimidine]
CC50 [3]: 50100 nM
CC50/EC50 [2]: 195
EC50 [2, 4]: 258 nM

CCOc1ccc(-c2ccc3ncnc(N4CCN(C(=O)Nc5cccc(Cl)c5)CC4)c3n2)cc1Cl [Example 86]
CC50 [3]: 25100 nM
CC50/EC50 [2]: 100
EC50 [2, 5]: 250 nM

4-[(N-4-chloro-phenylcarbamoyl)-piperazin-1-yl]-6-(3-methyl-4-methoxyphenyl)-pyrido[3,2-d]pyrimidine [Example 121]
CC50 [3]: 19400 nM
CC50/EC50 [2]: 162
EC50 [2, 5]: 120 nM

Nc1nc(N2CCN(C(=O)COc3ccc(Cl)cc3)CC2)c2nc(-c3ccc(Cl)cc3)ccc2n1 [Example 384, 2-amino-4-[N-(4-chlorophenoxyacetyl)piperazin-1-yl]-6-(4-chlorophenyl)pyrido-[3,2-d]pyrimidine]
CC50 [3]: 12200 nM and 7900 nM
CC50/EC50 [2]: 231 and 148
EC50 [2, 5]: 53 nM

Nc1nc(N2CCN(C(=O)COc3ccc(Cl)cc3)CC2)c2nc(-c3ccc4c(c3)OCCO4)ccc2n1 [Example 189, 2-amino-4-[N-(4-chlorophenoxy-acetyl)-piperazin-1-yl]-6-(1,4-benzodioxane)-pyrido[3,2-d]pyrimidine]
CC50 [3]: 430 nM
CC50/EC50 [2]: 50
EC50 [2, 5]: 9 nM

CCOc1nc(N)nc2ccc(-c3ccc(OC)c(OC)c3)nc12 [Example 307, 2-amino-4-ethoxy-6-(3,4-dimethoxy)pyrido[3,2-d]pyrimidine]
CC50 [3]: 50100 nM
CC50/EC50 [2]: 264
EC50 [2, 5]: 190 nM

CS(=O)(=O)CCNc1nc(N)nc2ccc(-c3ccc(F)cc3)nc12 [Example 415, 2-amino-4-[(2-aminoethyl)methylsulfone]-6-(4-fluorophenyl)pyrido[3,2-d]pyrimidine]
CC50 [3]: 11700 nM
CC50/EC50 [2]: 118
EC50 [2, 5]: 99 nM

2-amino-4-[(N-3-chloro-phenyl-carbamoyl)-piperazin-1-yl]-6-(3-fluoro-4-ethoxyphenyl)pyrido-[3,2-d]pyrimidine [Example 171]
CC50 [3]: 1500 nM
CC50/EC50 [2]: 101
EC50 [2, 5]: 15 nM

Nc1nc(N2CCN(C(=O)COc3ccc(Cl)cc3)CC2)c2nc(-c3cccc(Cl)c3)ccc2n1 [Example 385, 2-amino-4-[N-(4-chlorophenoxyacetyl)piperazin-1-yl]-6-(3-chlorophenyl)pyrido-[3,2-d]pyrimidine]
CC50 [3]: 7400 nM
CC50/EC50 [2]: 122
EC50 [2, 5]: 61 nM

N#Cc1ccc(-c2ccc3nc(N)nc(N4CCN(C(=O)COc5ccc(Cl)cc5)CC4)c3n2)cc1 [Example 378, 2-amino-4-[N-(4-chlorophenoxyacetyl)piperazin-1-yl]-6-(4-cyanophenyl)pyrido-[3,2-d]pyrimidine]
CC50 [3]: 4300 nM
CC50/EC50 [2]: 571
EC50 [2, 5]: 8 nM

Cc1cccc(NC(=O)N2CCN(c3nc(N)nc4ccc(-c5ccccc5)nc34)CC2)c1 [Example 389, 2-amino-4-[N-(3-methyl-phenyl-carbamoyl)-piperazin-1-yl]-6-phenyl-pyrido[3,2-d]pyrimidine]
CC50 [3]: 4200 nM
CC50/EC50 [2]: 200
EC50 [2, 5]: 21 nM

COc1ccc(-c2ccc3nc(N)nc(Nc4ccc5c(c4)OCO5)c3n2)cc1OC [Example 33, 2-amino-4-[3,4-(methylenedioxy)aniline]-6-(3,4-dimethoxyphenyl)pyrido[3,2-d]pyrimidine]
CC50 [3]: 4800 nM
CC50/EC50 [2]: 636
EC50 [2, 5]: 8 nM

Nc1nc(N2CCN(C(=O)COc3ccc(Cl)cc3)CC2)c2nc(-c3ccc(Cl)c(Cl)c3)ccc2n1 [Example 188, 2-amino-4-[N-(4-chlorophenoxy-acetyl)-piperazin-1-yl]-6-(3,4-dichlorophenyl)-pyrido[3,2-d]pyrimidine]
CC50 [3]: 12300 nM
CC50/EC50 [2]: 211
EC50 [2, 5]: 58 nM

CCOc1nc(N)nc2ccc(-c3ccc(F)c(Cl)c3)nc12 [Example 462, 6-(3-chloro-4-fluoro-phenyl)-4-ethoxy-pyrido[3,2-d]pyrimidin-2-ylamine]
CC50 [3]: 50100 nM
CC50/EC50 [2]: 117
EC50 ([2]; Hepatitis C virus, Huh-7, 72 h): 428 nM

Nc1nc(N2CCN(C(=O)COc3ccc(Cl)cc3)CC2)c2nc(-c3ccncc3)ccc2n1 [Example 386, 2-amino-4-[N-(4-chlorophenoxyacetyl)piperazin-1-yl]-6-(pyridin-4-yl)pyrido-[3,2-d]pyrimidine]
CC50 [3]: 6000 nM
CC50/EC50 [2]: 4585
EC50 [2, 5]: 1 nM

COc1ccc(-c2ccc3nc(N)nc(N4CCN(Cc5ccc6c(c5)OCO6)CC4)c3n2)cc1OC [Example 55, 2-amino-4-(1-piperonyl-piperazin-1-yl)-6-(3,4-dimethoxyphenyl)-pyrido[3,2-d]pyrimidine]
CC50 [3]: 25100 nM
CC50/EC50 [2]: 74
EC50 [2, 5]: 340 nM

Nc1nc(N2CCN(C(=O)COc3ccc(Cl)cc3)CC2)c2nc(-c3ccc(C(F)(F)F)cc3)ccc2n1 [Example 379, 2-amino-4-[N-(4-chlorophenoxyacetyl)piperazin-1-yl]-6-(4-trifluoromethylphenyl)-pyrido-[3,2-d]pyrimidine]
CC50 [3]: 21600 nM
CC50/EC50 [2]: 287
EC50 [2, 5]: 75 nM

4-ethoxy-6-(3-fluoro-4-methoxy-phenyl)-pyrido[3,2-d]pyrimidin-2-ylamine [Example 459]
CC50 [3]: 25100 nM
CC50/EC50 [2]: 78
EC50 [2, 5]: 320 nM

Nc1nc(N2CCN(C(=O)COc3ccc(Cl)cc3)CC2)c2nc(-c3ccc(F)cc3)ccc2n1 [Example 201, 2-amino-4-[(N-4-chloro-phenoxy-acetyl)-piperazin-1-yl]-6-(4-fluorophenyl)-pyrido[3,2-d]pyrimidine]
CC50 [3]: 25100 nM
CC50/EC50 [2]: 558
EC50 [2, 5]: 45 nM

COc1ccc(-c2ccc3nc(N)nc(N4CCN(Cc5ccccc5)CC4)c3n2)cc1OC [Example 57, 2-amino-4-(1-benzylpiperazin-1-yl)-6-(3,4-dimethoxyphenyl)-pyrido[3,2-d]pyrimidine]
CC50 [3]: 24600 nM
CC50/EC50 [2]: 546
EC50 [2, 5]: 45 nM

COc1ccc(-c2ccc3nc(N)nc(N4CCN(C(=O)COc5ccccc5)CC4)c3n2)cc1OC [Example 65, 2-amino-4[(N-phenoxy-acetyl)-piperazin-1-yl]-6-(3,4-dimethoxyphenyl)-pyrido[3,2-d]pyrimidine]
CC50 [3]: 25100 nM
CC50/EC50 [2]: 90
EC50 [2, 5]: 280 nM

Nc1nc(N2CCOCC2)c2nc(-c3ccc4c(c3)OCO4)ccc2n1 [Example 180, 2-amino-4-morpholino-6-(3,4-(methylenedioxy)phenyl)pyrido[3,2-d]pyrimidine]
CC50 [3]: 25100 nM
CC50/EC50 [2]: 167
EC50 [2, 5]: 150 nM

2-amino-4-(phenoxy-ethyl-piperazin-1-yl)-6-(3,4-dimethoxyphenyl)-pyrido[3,2-d]pyrimidine [Example 50]
CC50 [3]: 18000 nM
CC50/EC50 [2]: 310
EC50 [2, 5]: 58 nM
